Patent US11806314B2, “PDE5 inhibitor powder formulations and methods relating thereto” (Respira Therapeutics, Inc., priority 2013, dated 2023)
Counter-ions that a name gives are not always drawn.

What was measured:
Type in all cases: physicochemical
[1] = Aerosol performance, Next Generation Impactor (NGI) with powder deaggregator and RS01 capsule piercing mechanism; details: pure drug (100% API)
Source text: There are several inertia sampling apparatuses that can be used to assess aerosol performance of dry powder formulations. (<601> Aerosols, Nasal Sprays, Metered-Dose Inhalers, and Dry Powder Inhalers Monograph, in USP 29-NF 24 The United States Pharmacopoeia and The National Formulary: The Official Compendia of Standards. 2006, The United States Pharmacopeial Convention, Inc.: Rockville, Md. p. 2617-2636 (“USP<601>”).) These apparatus classify aerosol particles on the basis of the particles' aerodynamic diameter. Each stage of the impactor includes a single or series of nozzles with specific cutoff size. Particles are entrained into the apparatus. Those having sufficient inertia will impact on that particular stage collection plate, while smaller particles with insufficient inertia will remain entrained in the airstream and pass to the next stage where the process is repeated. The aerodynamic size distribution of API can be assessed by collecting the deposited API mass and the ED %, RF %, FPF % and MMAD (μm) can be calculated from the API deposition pattern. The emitted dose fraction (ED (%); Eq. 4) is determined as the percentage powder mass emitted from the initial dosing chamber/capsule relative to the total dose in capsules (nominal dose) (TD). Emitted dose (ED) includes the sum of the API mass […] deposited on the device stages. Fine particle fraction (FPF (%); Eq. 5) is expressed as a percentage of fine particle dose (FPD) below a certain aerodynamic cutoff size to ED. Respirable fraction (RF (%); Eq. 6) is defined as the percentage of FPD to total dose (TD).
Formulation aerosol performance tests were carried out using a powder deaggregator modified from that described in U.S. Patent Publication Nos. 2013/0340754 and 2013/0340747 combined with an off-the-shelf RS01 dry powder inhaler capsule piercing mechanism (Plastiape, IT) feeding method. […] The experiments were conducted at an airflow rate that gave a system pressure drop of 2 kPa (about 40 L/min, 4 L inhalation volume duration: 5.5 sec) or 4 kPa (about 60 L/min, 4 L inhalation volume duration: 3.9 sec).
Packaging: The blends were packaged into size 3 HPMC capsules. Nominal dose amounts of 3 mg were prepared for each formulation; 10 mg nominal doses were also prepared for pure drug VarBase and Var(HCl)2·xH2O formulations.
Methods: Two inertial sampling systems were used to assess aerosol performance: (1) a Next Generation Impactor® (“NGI”) (Copley Scientific, Shoreview, Minn.), and (2) a Twin Stage Liquid Impinge (“TSLI”) (Copley Scientific, Shoreview, Minn.). Aerosol performance of the VarHCl·xH2O formulation was assessed using the TSLI device, while the other formulations were all assessed using the NGI device. The NGI experiments were carried out using methods in general agreement with the USP<601>, and the TSLI experiments were carried using methods in general agreement with the British Pharmacopoeia, 2007, Vol. IV, Appendix XIIF. A291 Aerodynamic assessment of fine particles, fine particle dose and particle size distribution. The NGI experiments were run at a controlled airflow rate that gave a pressure drop of either 2 or 4 kPa across the device. Specifically, at Q=61.4 L/min with a delay time of 3.9 sec; and at Q=43.4 L/min with a delay time of 5.5 sec. Before the aerosol testing, the NGI collection plates were coated with suitable coating. Mass median aerodynamic diameter (MMAD) of aerosol particles distribution was determined based on a log-probability distribution (API particle size versus API deposition percentage) obtained from the NGI data. The TSLI experiments were run at Q=60 L/min, 4 sec to achieve ΔP≈4 kPa, with a cutoff size of 6.4 μm.

[2] = Dynamic vapor sorption (DVS) moisture sorption and desorption; details: 20° C.; for moisture sorption and desorption behavior: micronized, 0-80% P/Po
Procedure: DVS Analysis: No DVS results of these APIs have been previously reported. Moisture sorption and desorption behavior was assessed using a DVS-Advantage 1 (Surface Measurement Systems, Allentown, Pa.). Experimental parameters: sample % P/Po in a range of 0-80; 5% P/Po increment, equilibrium criteria, both sorption and desorption. Experiments conducted at 20° C.

[3] = Particle size analysis of micronized APIs by laser diffraction; details: micronized (jet-milled), dispersed in mineral spirit
Procedure: Var(HCl)2·xH2O, VarBase, and VarHCl·3H2O were purchased and then micronized using a commercial dry jet-miller. The jet milling was achieved using typical jet milling conditions and a single milling process. As shown in Example 5, micronization leads to partial dehydration of VarHCl·3H2O. As such, following micronization and absent rehydration, the compound is designated as VarHCl·xH2O.
The APIs were dispersed in mineral spirit, and particle size analysis was performed by laser diffraction using a Microtrac×100 Particle Size Analyzer. Particle size span was calculated as
[formula] where Dv0.1, Dv0.5 and Dv0.9 are 10%, 50% and 90% of the volume size distributed below the respective values.

[4] = Intrinsic stability testing (acid, base, oxidative degradation in solution) by HPLC; details: acidic, basic and oxidative conditions per ICH Guidance
Procedure: Method: VarHCl·3H2O, HPLC grade water, 36.5% HCl, NaOH pellets, 6% H2O2 were all purchased, and 1N HCl and 1N NaOH were prepared in house. Intrinsic stability testing was performed according to International Conference on Harmonization (ICH) Guidance for Industry Q1A(R2) Stability Testing of New Drug Substances and Products (November 2003, Rev. 2). Briefly, the compound was tested for acid hydrolysis (1N HCl) and base hydrolysis (1N NaOH) at r.t. for 48 hr and at 60° C. for 4 hr. Oxidation assessment (6% H2O2) was performed at r.t. for 48 hr. The stability of VarHCl·3H2O in solution was assessed using HPLC analysis as described above in Example 1, Section A.

[5] = 3 mg dose, dihydrochloride hydrate

## CCCc1nc(C)c2c(=O)[nH]c(-c3cc(S(=O)(=O)N4CCN(CC)CC4)ccc3OCC)nn12 [Var(HCl)2•xH2O (rehydrated), dihydrochloride hydrate]
[1]; [5]
  ED(%): 71.4%
  FPF(ED)(%): 63.6%
  MMAD: 1.37 μm
  RF(%): 45.4%

## CCCc1nc(C)c2c(=O)[nH]c(-c3cc(S(=O)(=O)N4CCN(CC)CC4)ccc3OCC)nn12 [VarHCl, vardenafil hydrochloride]
[2]; hydrochloride
  moisture sorption and desorption behavior: highly hygroscopic
[2]; sorption phase
  relative humidity at which a first water molecule bound to form a monohydrate: 5%

## CCCc1nc(C)c2c(=O)[nH]c(-c3cc(S(=O)(=O)N4CCN(CC)CC4)ccc3OCC)nn12 [VarBase, 2-[2-ethoxy-5-(4-ethylpiperazin-1-yl)sulfonylphenyl]-5-methyl-7-propyl-1H-imidazo[5,1-i][1,2,4]triazin-4-one]
[3]
  DV50: 1.557 μm
  Span: 1.557
[2]
  moisture sorption and desorption behavior: no hydration occurred
[1]; 3 mg dose
  ED(%): 81.8%
  FPF(ED)(%): 56.0%
  MMAD: 1.32 μm
  RF(%): 45.8%
[1]; 10 mg dose
  ED(%): 64.2%
  FPF(ED)(%): 37.2%
  MMAD: 1.51 μm
  RF(%): 23.9%

## CCCc1nc(C)c2c(=O)[nH]c(-c3cc(S(=O)(=O)N4CCN(CC)CC4)ccc3OCC)nn12 [VarHCl·3H2O, vardenafil hydrochloride trihydrate]
[4]
  extent of degradation: significant in basic and oxidative conditions
[2]; desorption phase
  relative humidity below which water loss occurred: lower than 15%
[2]; desorption phase, hydrochloride trihydrate
  humidity range in which the trihydrate form is stable / maintained: 10-80 % RH
[2]; sorption phase
  relative humidity up to which integrity is maintained (not reaching deliquescence): up to 80 % RH
